Like-named read-outs stand apart in the source and are kept apart here. No end group written: not given here.
Legend:
Test in all cases: biochemical
Type in all cases: binding
HLA-DR DRB4*0101 (DR53) = HLA-DR DRB4*0101 (DR53) (Homo sapiens, UniProt P01903+P13762, G164S)
HLA-DR DRB1*0101 (DR1) = HLA-DR DRB1*0101 (DR1) (Homo sapiens, UniProt P01903+P01911, A100R/D57E/F55L/F60I/F76Y/I96L/L162R/M171V/P40L/Q125E/R42F/V115G/Y59C)
HLA-DR DRB1*0401 (DR4) = HLA-DR DRB1*0401 (DR4) (Homo sapiens, UniProt P01903+P01911, A100K/A169T/F76Y/I96L/K127E/L162R/M171V/N62H/P40V/Q125Y/R42H/S133A/S149N/S66Y/V115G/V209L/W38E)
HLA-DR DRB1*0701 (DR7) = HLA-DR DRB1*0701 (DR7) (Homo sapiens, UniProt P01903+P01911, A100R/A102G/A103Q/D57E/D86V/E43K/F76Y/K127E/L162R/M171V/P40G/Q125H/Q99D/R33Q/R42Y/R54Q/S133A/S66F/T210M/V115G/Y107V/Y59L/Y89S)
HLA-DR DRB1*1501 (DR15) = HLA-DR DRB1*1501 (DR15) (Homo sapiens, UniProt P01903+P01911)
HLA-DR DRB5*0101 (DR51) = HLA-DR DRB5*0101 (DR51) (Homo sapiens, UniProt P01903+Q30154)

Compound: PQPFRPQQPYPQ
- IC50 (HLA-DR DRB4*0101 (DR53); DRB4 *0101): 15 nM

Compound: AAAKAAAAAAAFA
- IC50 (HLA-DR DRB1*0101 (DR1); DRB1 *0101): ≥ 50000 nM

Compound: CC[C@H](C)[C@H](NC(=O)[C@@H](NC(=O)[C@@H]1CCCN1C(=O)[C@H](Cc1ccccc1)NC(=O)[C@H](Cc1ccccc1)NC(=O)[C@H](Cc1ccc(O)cc1)NC(=O)[C@H](CCC(N)=O)NC(=O)[C@H](Cc1c[nH]c2ccccc12)NC(=O)[C@H](CC(N)=O)NC(=O)CNC(=O)[C@@H](N)C(C)C)C(C)C)C(=O)N[C@@H](Cc1ccccc1)C(=O)N[C@@H](CO)C(=O)N[C@@H](CCCCN)C(=O)N[C@@H](C)C(=O)O
- IC50 (HLA-DR DRB1*0101 (DR1); DRB1 *0101): 37 nM
- IC50 (HLA-DR DRB1*0401 (DR4); DRB1 *0401): 4.1 nM
- IC50 (HLA-DR DRB1*0701 (DR7); DRB1 *0701): 100 nM

Compound: PKPFRPQQPYPQ
- IC50 (HLA-DR DRB4*0101 (DR53); DRB4 *0101): 3.4 nM

Compound: QKQVQMMIMTKFMGV
- IC50 (HLA-DR DRB1*0101 (DR1); read-out: DRB1 *0101): 121 nM
- IC50 (HLA-DR DRB1*0701 (DR7); read-out: DRB1 *0701): 3620 nM

Compound: PQPFRPQQPYKQ
- IC50 (HLA-DR DRB4*0101 (DR53); DRB4 *0101): 35 nM

Compound: C[C@H](N)C(=O)N[C@@H](C)C(=O)N[C@@H](C)C(=O)N[C@@H](C)C(=O)N[C@@H](C)C(=O)N[C@@H](C)C(=O)N[C@@H](C)C(=O)N[C@@H](C)C(=O)N[C@@H](C)C(=O)N[C@@H](C)C(=O)N[C@@H](C)C(=O)N[C@@H](CC(N)=O)C(=O)N[C@@H](C)C(=O)O
- IC50 (HLA-DR DRB1*0101 (DR1); DRB1 *0101): ≥ 50000 nM
- IC50 (HLA-DR DRB1*0401 (DR4); DRB1 *0401): 1000 nM

Compound: AAKAAAAAAA(10)AA
- IC50 (HLA-DR DRB1*0401 (DR4); read-out: DRB1 *0401): > 889 nM

Compound: IRNLALQTLPAM
- IC50 (HLA-DR DRB4*0101 (DR53); DRB4 *0101): 2 nM

Compound: KQPFRPQQPYPQ
- IC50 (HLA-DR DRB4*0101 (DR53); DRB4 *0101): 56 nM

Compound: FLGQQQPFPPQ
- IC50 (HLA-DR DRB4*0101 (DR53); DRB4 *0101): 31 nM

Compound: ACAAAKATAAAA(10)AA
- IC50 (HLA-DR DRB1*0101 (DR1); read-out: DRB1 *0101): 5000 nM

Compound: RNGYRALMDKSLHVGTQCALTRR
- IC50 (HLA-DR DRB1*0401 (DR4); DRB1 *0401): 512 nM

Compound: ENPVVAFFKNIVTPR
- IC50 (HLA-DR DRB1*1501 (DR15); DRBI *1501): 2.8 nM
- IC50 (HLA-DR DRB5*0101 (DR51); DRB5 *0101): 302 nM

Compound: YSFFPSI [YSFFPSI]
- IC50 (HLA-DR DRB1*0101 (DR1); DRB1 *0101): ≥ 50000 nM

Compound: AFLRQAAAAAFAAY
- IC50 (HLA-DR DRB1*0101 (DR1); DRB1 *0101): 2500 nM
- IC50 (HLA-DR DRB1*0401 (DR4); DRB1 *0401): 1000 nM

Compound: P(X)KQNTLKLAT
- IC50 (HLA-DR DRB1*0101 (DR1); read-out: DRB1 *0101): 1.7 nM

Compound: KKNIIALLIIPPKIH
- IC50 (HLA-DR DRB1*1501 (DR15); read-out: DRBI *1501): 32 nM
- IC50 (HLA-DR DRB4*0101 (DR53); read-out: DRB4 *0101): 8.2 nM

Compound: PATYGIIVPVLTSLF
- IC50 (HLA-DR DRB1*0101 (DR1); DRB1 *0101): 1.03 nM
- IC50 (HLA-DR DRB1*0401 (DR4); DRB1 *0401): 15 nM
- IC50 (HLA-DR DRB1*1501 (DR15); DRBI *1501): 2560 nM
- IC50 (HLA-DR DRB5*0101 (DR51); DRB5 *0101): 52 nM

Compound: AAKIFIGFFIDGA
- IC50 (HLA-DR DRB1*0401 (DR4); DRB1 *0401): 200 nM

Compound: DPNANPNVDPNAN
- IC50 (HLA-DR DRB1*0401 (DR4); read-out: DRB1 *0401): 738 nM
- IC50 (HLA-DR DRB1*0701 (DR7); read-out: DRB1 *0701): > 15600 nM

Compound: AAYAAAATAKAAA
- IC50 (HLA-DR DRB1*0101 (DR1); read-out: DRB1 *0101): 3.9 nM
- IC50 (HLA-DR DRB1*0401 (DR4); read-out: DRB1 *0401): 0.54 nM

Compound: AAAKAAAAAAAAF
- IC50 (HLA-DR DRB1*0101 (DR1); DRB1 *0101): > 1670 nM
- IC50 (HLA-DR DRB1*0401 (DR4); DRB1 *0401): > 348 nM

Compound: QFLGQQQPFPP
- IC50 (HLA-DR DRB4*0101 (DR53); DRB4 *0101): 2.3 nM

Compound: AWVAWRNRCK
- IC50 (HLA-DR DRB1*0101 (DR1); read-out: DRB1 *0101): ≥ 50000 nM
- IC50 (HLA-DR DRB1*0701 (DR7); read-out: DRB1 *0701): > 12500 nM

Compound: AADDDDDDDDDDA
- IC50 (HLA-DR DRB1*0101 (DR1); DRB1 *0101): ≥ 50000 nM

Compound: AAANAAAAAAAAA
- IC50 (HLA-DR DRB1*0101 (DR1)): ≥ 50000 nM

Compound: QFLGQQQPF
- IC50 (HLA-DR DRB4*0101 (DR53); DRB4 *0101): 5.3 nM

Compound: Ac-ASQKRPSQRHGSKYLATAST
- IC50 (HLA-DR DRB5*0101 (DR51); DRB5 *0101): 4560 nM

Compound: AAFIFIGGGKIKA
- IC50 (HLA-DR DRB1*0101 (DR1); DRB1 *0101): ≥ 50000 nM
- IC50 (HLA-DR DRB1*0401 (DR4); DRB1 *0401): 195 nM

Compound: C[C@H](NC(=O)[C@H](C)NC(=O)[C@H](C)NC(=O)[C@H](C)NC(=O)[C@H](C)NC(=O)[C@H](C)NC(=O)[C@H](C)NC(=O)[C@H](C)NC(=O)[C@H](C)NC(=O)[C@H](C)NC(=O)[C@H](C)NC(=O)[C@H](C)NC(=O)[C@@H](N)Cc1ccccc1)C(=O)O
- IC50 (HLA-DR DRB1*0401 (DR4); DRB1 *0401): 200 nM

Compound: AAAKAAAAAAFAA
- IC50 (HLA-DR DRB1*0401 (DR4); DRB1 *0401): 235 nM

Compound: KYVKQNTLKLAT
- IC50 (HLA-DR DRB1*0101 (DR1)): 9.9 nM
- IC50 (HLA-DR DRB1*0401 (DR4)): 6.2 nM

Compound: ENPVVHFFKIHVTPA
- IC50 (HLA-DR DRB1*1501 (DR15); read-out: DRBI *1501): 2.5 nM

Compound: QFLGQQQPFPPQ
- IC50 (HLA-DR DRB4*0101 (DR53); DRB4 *0101): 2.8 nM

Compound: (46)AAKTAAAFA
- IC50 (HLA-DR DRB1*0101 (DR1); read-out: DRB1 *0101): 5000 nM

Compound: PQPFRPQKPYPQ
- IC50 (HLA-DR DRB4*0101 (DR53); DRB4 *0101): 22 nM

Compound: QKQLLTNHLINTPKI
- IC50 (HLA-DR DRB4*0101 (DR53); read-out: DRB4 *0101): 904 nM

Compound: PKYFKQGFLKGAT
- IC50 (HLA-DR DRB1*0101 (DR1)): ≥ 50000 nM
- IC50 (HLA-DR DRB1*0401 (DR4)): 800 nM

Compound: NLALQTLPAMCNVY
- IC50 (HLA-DR DRB4*0101 (DR53); DRB4 *0101): 27 nM

Compound: ENPVVHFFANIVTPR
- IC50 (HLA-DR DRB1*1501 (DR15); DRBI *1501): 2.9 nM
- IC50 (HLA-DR DRB5*0101 (DR51); DRB5 *0101): 6240 nM

Compound: (43)AADFGIFIDFHA
- IC50 (HLA-DR DRB1*0401 (DR4); read-out: DRB1 *0401): 235 nM

Compound: AAEAAAATAKAAA
- IC50 (HLA-DR DRB1*0101 (DR1); DRB1 *0101): 2500 nM

Compound: CC[C@H](C)[C@H](N)C(=O)NCC(=O)N[C@@H](Cc1c[nH]cn1)C(=O)N[C@@H](CC(C)C)C(=O)N[C@@H](Cc1ccc(O)cc1)C(=O)N[C@H](C(=O)N[C@@H](Cc1ccccc1)C(=O)N[C@@H](C)C(=O)N[C@H](C(=O)N[C@@H](CS)C(=O)N[C@@H](CC(C)C)C(=O)NCC(=O)N[C@@H](CC(C)C)C(=O)N[C@@H](CO)C(=O)N[C@@H](Cc1ccc(O)cc1)C(=O)N[C@@H](CC(=O)O)C(=O)NCC(=O)N[C@@H](CC(C)C)C(=O)O)[C@@H](C)O)[C@@H](C)CC
- IC50 (HLA-DR DRB1*0401 (DR4); DRB1 *0401): > 816 nM

Compound: (52)AAAATKAAAA
- IC50 (HLA-DR DRB1*0101 (DR1); read-out: DRB1 *0101): 2000 nM

Compound: QKQVQMMIMIKFMGV
- IC50 (HLA-DR DRB1*1501 (DR15); read-out: DRBI *1501): 363 nM
- IC50 (HLA-DR DRB4*0101 (DR53); read-out: DRB4 *0101): 5.3 nM
- IC50 (HLA-DR DRB5*0101 (DR51); read-out: DRB5 *0101): 915 nM

Compound: PQPFRPQQPYP
- IC50 (HLA-DR DRB4*0101 (DR53); DRB4 *0101): 14 nM

Compound: HFFKNIVTPRTPPY
- IC50 (HLA-DR DRB1*1501 (DR15); DRBI *1501): 460 nM
- IC50 (HLA-DR DRB5*0101 (DR51); DRB5 *0101): 377 nM

Compound: NPVVHFFKNIVT
- IC50 (HLA-DR DRB1*1501 (DR15); DRBI *1501): 23 nM
- IC50 (HLA-DR DRB5*0101 (DR51); DRB5 *0101): 10000 nM

Compound: SAVPVYIYFNTWTTCQSIAF
- IC50 (HLA-DR DRB1*1501 (DR15); read-out: DRBI *1501): 92 nM
- IC50 (HLA-DR DRB5*0101 (DR51); read-out: DRB5 *0101): 20000 nM
